Laboratory results published in patent US6723739B1, “Glucopyranoside benzothiophenes” (Eli Lilly and Company, priority 1994, dated 2004).

Tests used:
serum cholesterol = assay: Serum cholesterol in the ovariectomized rat post-menopausal model; format: in vivo; details: OVX rats, daily for 4 days
Procedure: (§1) A post-menopausal model was used in which effects of different treatments upon circulating lipids were determined.
(§2) Seventy-five day old female Sprague Dawley rats (weight range of 200 to 225 g) were obtained from Charles River Laboratories (Portage, Mich.). The animals were either bilaterally ovariectomized (OVX) or exposed to a sham surgical procedure at Charles River Laboratories, and then shipped after one week. Upon arrival, they were housed in metal hanging cages in groups of 3 or 4 per cage and had ad libitum access to food (calcium content approximately 0.5%) and water for one week. Room temperature was maintained at 22.2°±1.7° C. with a minimum relative humidity of 40%. The photoperiod in the room was 12 hours light and 12 hours dark.
(§3) Dosina Regimen/Tissue Collection. After a one week acclimation period (therefore, two weeks post-OVX) daily dosing with test compound was initiated. All compounds were administered subcutaneously at the dosages listed. Animals were dosed daily for 4 days. Following the dosing regimen animals were weighed and anesthetized with a ketamine: xylazine (2:1, [V:V] mixture and a blood sample was collected by cardiac puncture. The animals were then sacrificed by asphyxiation with CO2 and the uterus was removed through a midline incision and a wet weight was determined.
Cholesterol Analysis. Blood samples were allowed to clot at room temperature for 2 hrs, and serum was obtained following centrifugation for 10 min at 3000 rpm. Serum cholesterol was determined using a Boehringer Mannheim Diagnostics high performance cholesterol assay. Briefly the cholesterol was oxidized to cholest-4-en-3-one and hydrogen peroxide. The hydrogen peroxide was then reacted with phenol and 4-aminophenazone in the presence of peroxidase to produce a p-quinone imine dye, which was read spectrophotometrically at 500 nm. Cholesterol concentration was then calculated against a standard curve. The entire assay was automated using a Biomek Automated workstation.

uterus = assay: Uterine wet weight in ovariectomized rats; format: in vivo, rat; details: OVX rats, daily for 4 days, vs control OVX
Procedure: as §1, §2, §3

[1] = system: uterine eosinophil peroxidase; assay: Uterine eosinophil peroxidase (EPO) assay in ovariectomized rats; format: in vivo, rat; details: OVX rats, daily for 4 days
Description: as §2, §3
Uterine Eosinophil Peroxidase (EPO) Assay. The presence of eosinophils in the uterus is an indication of estrogenic activity of a compound. To maintain EPO activity, uteri were kept at 4° C. until time of enzymatic analysis. The uteri were then homogenized in 50 volumes of 50 mM Tris buffer (pH-8.0) containing 0.005% Triton X-100. Upon addition of 0.01% hydrogen peroxide and 10 mM o-phenylenediamine (final concentrations) in Tris buffer, increase in absorbance was monitored for one minute at 450 nm. The maximal velocity of a 15 second interval was determined over the initial linear portion of the reaction curve.

[2] = Systemic circulation and metabolites after oral raloxifene in humans; format: in vivo, human

| SMILES | % Decrease of Serum Cholesterol (serum cholesterol; 0.013 mg/kg subcutaneously) | % Decrease of Serum Cholesterol (serum cholesterol; 0.13 mg/kg subcutaneously) | % Decrease of Serum Cholesterol (serum cholesterol; 1.3 mg/kg subcutaneously) | % Uterine Wt. gain (uterus; 0.013 mg/kg subcutaneously) | % Uterine Wt. gain (uterus; 0.13 mg/kg subcutaneously) | % Uterine Wt. gain (uterus; 1.3 mg/kg subcutaneously) | EPO Activity (Vmax for eosinophil peroxidase activity) ([1]; 0.013 mg/kg subcutaneously) | EPO Activity (Vmax for eosinophil peroxidase activity) ([1]; 0.13 mg/kg subcutaneously) | EPO Activity (Vmax for eosinophil peroxidase activity) ([1]; 1.3 mg/kg subcutaneously) | Metabolite status ([2]; human metabolite of raloxifene) | Concentrations of raloxifene in systemic circulation ([2]; administered orally to humans) |
| --- | --- | --- | --- | --- | --- | --- | --- | --- | --- | --- | --- |
| O=C(c1ccc(OCCN2CCCCC2)cc1)c1c(-c2ccc(O)cc2)sc2cc(O[C@@H]3OC(C(=O)O)[C@@H](O)[C@H](O)[C@H]3O)ccc12 (some centres unmarked) [Ia] | 21.7% | 43.8% | 44.5% | −21.3% | 14.2% | 24.1% | 2.0 n OD/min | 2.3 n OD/min | 3.5 n OD/min | – | – |
| O=C(c1ccc(OCCN2CCCCC2)cc1)c1c(-c2ccc(O[C@@H]3O[C@H](C(=O)O)[C@@H](O)[C@H](O)[C@H]3O)cc2)sc2cc(O)ccc12 [Ib] | 13.6% | 21.9% | 56.8% | −7.7% | 14.5% | 36.1% | 3.2 n OD/min | 3.1 n OD/min | 4.4 n OD/min | predominant human metabolite | – |
| Cl.O=C(c1ccc(OCCN2CCCCC2)cc1)c1c(-c2ccc(O)cc2)sc2cc(O)ccc12 [raloxifene, 6-Hydroxy-2-(4-hydroxyphenyl)-3-[4-(2-piperidinoethoxy)benzoyl]benzo[b]thiophene, reference compound] | – | – | – | – | – | – | – | – | – | – | absence of detectable concentrations |
